Patent US11571480B2, “Multi-ligand drug conjugates and uses thereof” (priority 2015, dated 2023)

Experiments:
[1] = tested on: human nasopharyngeal cancer cell line KB; experiment: Cytotoxicity test of conjugate LDC13B; assay type: cell-based
Protocol: (§1) Culture medium: RPMI 1640 Medium, no folic acid
1) human nasopharyngeal cancer cell line KB, human colon carcinoma HCT-116, human prostatic cancer cell PC-3, human gastric cancer cell line GTL-16, human endometrial cancer cell HEC-1A, and human gastric cancer cell N87 were incubated at 37° C., 5% CO2 in RPMI 1640 medium containing 10% fetal bovine serum, the cells were passaged every 2-3 days.
2) human nasopharyngeal cancer cell line KB, human colon carcinoma HCT-116, human prostatic cancer cell PC-3, human gastric cancer cell line GTL-16, human endometrial cancer cell HEC-1A, and human gastric cancer cell N87 were plated at 1×10^3 cells per well (96-well plate) and incubated for 8-12 h at 37° C., 5% CO2.
(§2) 3) Stock solutions of LDC conjugates or control were prepared in PBS solution. 100 μL/well of serially diluted LDC conjugates or control was added to the cells in the plate and incubated for 15-30 min at 37° C., 5% CO2. The culture medium in the wells was then removed by aspiration and the cells were incubated in fresh culture medium without conjugates (150 μL/well) for 2-3 days at 37° C., 5% CO2.
(§3) 4) CellTiter 96® Aqueous One Solution Cell Proliferation Assay (Promega) was added to each well to measure the amount of […] cells, and the plate was incubated in an incubator for 1 h at 37° C., 5% CO2.
(§4) 5) the plate was read at 490 nm on a microplate reader, and the cell survivals were compared for cells with or without the treatment of LDC conjugates. The LDC drug concentrations that are required for 50% cell death (IC50 values) were determined.

[2] = tested on: Transplanted H460 tumor; experiment: Inhibitory assay of conjugate LDC13B against xenograf tumors; assay type: in vivo, nude mice; conditions: for Body weight of mice / Tumor size: H460 tumor
Protocol: (§5) Animal: nude mice, aged 6-8 weeks, female
1) human large cell lung cancer cell H460 were incubated at 37° C., 5% CO2 in IMDM medium containing 10% fetal bovine serum, the cells were passaged every 2-3 days.
2) generation of tumors: 7×10^6 tumor cells were injected subcutaneously into the back of nude mice, and the mice were grouped for treatment after the tumor sizes were as large as about 200 mm^3.
3) treatment: 3 mice/group, treated with LDC13B as well as controls MMAE and PBS with doses of 2.5 and 5 mg/kg every 3 days, four injections.
(§6) 4) the physical performance, body weights and tumor sizes of the animals were monitored. The number of animal death was recorded during the experiment.

[3] = tested on: Transplanted HCC1954 tumor; experiment: Inhibitory assay of conjugate LDC1013 against xenograf tumors; assay type: in vivo, nude mice; conditions: for Body weight of mice / Tumor size: HCC1954 tumor
Protocol: as §5
1) Human breast cancer cells HCC1954 were incubated at 37° C., 5% CO2 in IMDM medium containing 10% fetal bovine serum, the cells were passaged every 2-3 days.
2) generation of tumors: 7×10^6 tumor cells were injected subcutaneously into the back of nude mice, and the mice were grouped for treatment after the tumor sizes were as large as about 180-320 mm^3. […]
as §6

[4] = tested on: melanoma cell line A375; experiment: Cytotoxicity test of conjugate LDC1013; assay type: cell-based
Protocol: as §1
1) human nasopharyngeal cancer cell line KB, melanoma cell line A375, and human lung cancer cell H460 were incubated at 37° C., 5% CO2 in RPMI 1640 medium containing 10% fetal bovine serum, the cells were passaged every 2-3 days.
2) human nasopharyngeal cancer cell line KB, melanoma cell line A375, and human lung cancer cell H460 were plated at 1×10^3 cells per well (96-well plate) and incubated for 8-12 h at 37° C., 5% CO2.
as §2, §3, §4

[5] = 2.5 mg/kg, 3 days after Injection 1
[6] = 2.5 mg/kg, 3 days after Injection 2
[7] = 2.5 mg/kg, 3 days after Injection 3
[8] = 2.5 mg/kg, 3 days after Injection 4
[9] = 5 mg/kg, 3 days after Injection 1
[10] = 5 mg/kg, 3 days after Injection 2
[11] = 5 mg/kg, 3 days after Injection 3
[12] = 5 mg/kg, 3 days after Injection 4
[13] = 2.5 mg/kg, 4 days after Injection 5
[14] = 2.5 mg/kg, 5 days after Injection 6
[15] = 2.5 mg/kg, 6 days after Injection 7
[16] = 5 mg/kg, 4 days after Injection 5
[17] = 5 mg/kg, 5 days after Injection 6

Question: For `CC[C@H](C)[C@@H]([C@@H](CC(=O)N1CCC[C@H]1[C@H](OC)[C@@H](C)C(=O)N[C@H](C)[C@@H](O)c1ccccc1)OC)N(C)C(=O)[C@@H](NC(=O)[C@H](C(C)C)N(C)C(=O)OCc1ccc(NC(=O)[C@H](CCCNC(N)=O)NC(=O)[C@@H](NC(=O)CCCCCN2C(=O)CC(SC[C@H](NC(=O)CC[C@H](NC(=O)c3ccc(NCc4cnc5[nH]c(N)nc(=O)c5n4)cc3)C(=O)O)C(=O)NCCCC[C@@H](NC(=O)[C@H](Cc3ccc(O)cc3)NC(=O)[C@H](CO)NC(=O)[C@H](Cc3c[nH]c4ccccc34)NC(=O)[C@H](Cc3c[nH]cn3)NC(=O)[C@@H]3CCC(=O)N3)C(=O)N[C@@H](CC(C)C)C(=O)N[C@@H](CCCNC(=N)N)C(=O)N3CCC[C@H]3C(=O)NCC(N)=O)C2=O)C(C)C)cc1)C(C)C` (some centres unmarked) [LDC13B], which “more potent than either of the single-ligand drug conjugates LDC1 and LDC13A” value [1] is on record?
Answer: 2-10 fold

Question: What about the “tumor response (in words)” value ([2]; H460, 2.5 mg/kg dose) of the same compound?
Answer: shrank rapidly

Question: What about the “tumor response (in words)” value ([2]; H460, after four injections at 5 mg/kg) of the same compound?
Answer: completely disappeared

Question: And the “Body weight of mice” value [2, 5]?
Answer: 22.73 g

Question: What about the Tumor size [2, 5] of the same compound?
Answer: 384 mm^3

Question: And the “Body weight of mice” value [2, 6]?
Answer: 22.65 g

Question: What about the Tumor size [2, 6] of the same compound?
Answer: 384 mm^3

Question: What about the “Body weight of mice” value [2, 7] of the same compound?
Answer: 22.47 g

Question: And the Tumor size [2, 7]?
Answer: 144 mm^3

Question: What about the “Body weight of mice” value [2, 8] of the same compound?
Answer: 21.76 g

Question: And the Tumor size [2, 8]?
Answer: 144 mm^3

Question: What about the “Body weight of mice” value ([2]; 2.5 mg/kg, Before Injection) of the same compound?
Answer: 22.7 g

Question: What about the Tumor size ([2]; 2.5 mg/kg, Before Injection) of the same compound?
Answer: 294 mm^3

Question: And the “Body weight of mice” value [2, 9]?
Answer: 18.36 g

Question: And the Tumor size [2, 9]?
Answer: 144 mm^3

Question: And the “Body weight of mice” value [2, 10]?
Answer: 19.65 g

Question: What about the Tumor size [2, 10] of the same compound?
Answer: 40 mm^3

Question: And the “Body weight of mice” value [2, 11]?
Answer: 18.21 g

Question: And the Tumor size [2, 11]?
Answer: 18 mm^3

Question: What about the “Body weight of mice” value [2, 12] of the same compound?
Answer: 18.22 g

Question: What about the Tumor size [2, 12] of the same compound?
Answer: 13.5 mm^3

Question: And the “Body weight of mice” value ([2]; 5 mg/kg, Before Injection)?
Answer: 20.95 g

Question: And the Tumor size ([2]; 5 mg/kg, Before Injection)?
Answer: 196 mm^3

Question: `CC[C@H](C)[C@@H]([C@@H](CC(=O)N1CCC[C@H]1[C@H](OC)[C@@H](C)C(=O)N[C@H](C)[C@@H](O)c1ccccc1)OC)N(C)C(=O)[C@@H](NC(=O)[C@H](C(C)C)N(C)C(=O)OCc1ccc(NC(=O)[C@H](CCCNC(N)=O)NC(=O)[C@@H](NC(=O)CCCCCN2C(=O)CC(SC[C@H](NC(=O)[C@H](CCCNC(=N)N)NC(=O)[C@H](CCCNC(=N)N)NC(=O)[C@H](CCCNC(=N)N)NC(=O)[C@H](CCCNC(=N)N)NC(=O)[C@H](CCCNC(=N)N)NC(=O)[C@H](CCCNC(=N)N)NC(=O)[C@H](CCCNC(=N)N)NC(=O)[C@H](CCCNC(=N)N)NC(=O)[C@@H](N)CCCNC(=N)N)C(=O)NCCCC[C@H](NC(=O)[C@H](Cc3ccc(O)cc3)NC(=O)[C@H](CO)NC(=O)[C@H](Cc3c[nH]c4ccccc34)NC(=O)[C@H](Cc3c[nH]cn3)NC(=O)[C@@H]3CCC(=O)N3)C(=O)N[C@@H](CC(C)C)C(=O)N[C@@H](CCCNC(=N)N)C(=O)N3CCC[C@H]3C(=O)NCC(N)=O)C2=O)C(C)C)cc1)C(C)C` (some centres unmarked) [LDC1013] was tested. Which “tumor response (in words)” value ([3]; HCC1954, 7 doses at 2.5 mg/kg and 7 doses of 5 mg/kg injected every three days) did it give?
Answer: completely eliminate

Question: What about the “Body weight of mice” value [3, 5] of the same compound?
Answer: 24.46 g

Question: What about the Tumor size [3, 5] of the same compound?
Answer: 198 mm^3

Question: What about the “Body weight of mice” value [3, 6] of the same compound?
Answer: 24.54 g

Question: What about the Tumor size [3, 6] of the same compound?
Answer: 198 mm^3

Question: And the “Body weight of mice” value [3, 7]?
Answer: 23.94 g

Question: And the Tumor size [3, 7]?
Answer: 180 mm^3

Question: What about the “Body weight of mice” value [3, 8] of the same compound?
Answer: 24.3 g

Question: And the Tumor size [3, 8]?
Answer: 113 mm^3

Question: And the “Body weight of mice” value [3, 13]?
Answer: 24.98 g

Question: What about the Tumor size [3, 13] of the same compound?
Answer: 64 mm^3

Question: And the “Body weight of mice” value [3, 14]?
Answer: 24.73 g

Question: And the Tumor size [3, 14]?
Answer: 22 mm^3

Question: And the “Body weight of mice” value [3, 15]?
Answer: 24.43 g

Question: What about the Tumor size [3, 15] of the same compound?
Answer: 0 mm^3

Question: What about the “Body weight of mice” value ([3]; 2.5 mg/kg, Before Injection) of the same compound?
Answer: 24.14 g

Question: What about the Tumor size ([3]; 2.5 mg/kg, Before Injection) of the same compound?
Answer: 180 mm^3

Question: And the “Body weight of mice” value [3, 9]?
Answer: 20.7 g

Question: What about the Tumor size [3, 9] of the same compound?
Answer: 405 mm^3

Question: And the “Body weight of mice” value [3, 10]?
Answer: 20.43 g

Question: What about the Tumor size [3, 10] of the same compound?
Answer: 405 mm^3

Question: What about the “Body weight of mice” value [3, 11] of the same compound?
Answer: 21.31 g

Question: What about the Tumor size [3, 11] of the same compound?
Answer: 288 mm^3

Question: And the “Body weight of mice” value [3, 12]?
Answer: 21.15 g

Question: And the Tumor size [3, 12]?
Answer: 88 mm^3

Question: What about the “Body weight of mice” value [3, 16] of the same compound?
Answer: 21.21 g

Question: What about the Tumor size [3, 16] of the same compound?
Answer: 40 mm^3

Question: And the “Body weight of mice” value [3, 17]?
Answer: 20.49 g

Question: And the Tumor size [3, 17]?
Answer: 0 mm^3

Question: What about the “Body weight of mice” value ([3]; 5 mg/kg, 6 days after Injection 7) of the same compound?
Answer: 24.49 g

Question: What about the “Body weight of mice” value ([3]; 5 mg/kg, Before Injection) of the same compound?
Answer: 21.92 g

Question: What about the Tumor size ([3]; 5 mg/kg, Before Injection) of the same compound?
Answer: 320 mm^3

Question: What about the “less toxic for A375 than for H460 and KB, respectively” value [4] of the same compound?
Answer: 10-100 fold
